Measured values as given in patent US20250066737A1, “METHOD FOR ESTABLISHING LUNG CANCER CELL MODEL HAVING VASCULAR TUBES, PLATFORM FOR LUNG CANCER MEDICINE SCREENING AND METHOD FOR USING THEREOF” (National Cheng Kung University Hospital, priority 2023, published 2025).

What was measured:
H1299-EGFRmt cell model [1] = assay: Cell viability, H1299-EGFRmt cell model; type: cell-based
Protocol: (§1) Cell viability was determined using an MTT assay.

[2] = tested on: H1299-EGFRwt and H1299-EGFRmt cell models; assay: 3D-VM vasculature under single use of osimertinib (cell model not given); type: cell-based
Protocol: (§2) The assessment of in vitro vasculogenic mimicry (VM) capabilities of cancer cells was conducted utilizing the Matrigel tube formation assay. Chamber slides (TruLive3D Dishes, Burker) were prepared by applying a 100 μl layer of growth factor-reduced Matrigel (Corning) and subsequently allowing for gel solidification over a 30-minute period at 37° C. […] This preparation was then incubated for an additional 30 minutes at 37° C. within a CO2 incubator. […]
(§3) The quantification of tube or lumen formation of 3D-VM vasculature was conducted utilizing an analytical approach on at least eight distinct areas of interest (AOIs), among which three AOIs were specified as representative sections of images. […] First, the AOI was identified and quantified. Following this, the mean ROI was calculated by aggregating the ROIs for all eight AOIs (area 1+ area 2+ . . . area 8) and dividing this sum by eight, thereby deriving an average area that reflects the typical dimensions of the regions analyzed in each individual lung cancer cell model. […]
(§4) The entire quantification process was facilitated by employing the Angiogenesis Analyzer for ImageJ.

H1299-EGFRwt cell model [3] = conditions: osimertinib
Protocol: Cell viability was determined using an MTT assay. Cells were plated at a density of 4×10^3 cells/well within 96-well plates. These cells were then exposed to various concentrations of anti-vasculogenic mimicry (anti-VM) compounds across different time points: 0, 24, 48, and 72 hours. Following the treatment period, the MTT reagent (sourced from Sigma) was added to each well, and the cells were incubated at 37° C. for 2 hours. Subsequently, the plates were centrifuged at 1500 rpm for 10 minutes to facilitate the removal of the supernatant. The resultant formazan crystals were dissolved using dimethyl sulfoxide (DMSO), and the absorbance of the solution, indicative of cell viability, was measured at a wavelength of 492 nm using an ELISA plate reader.

phosphorylated EGFR = conditions: Western blot, H1299, H1299-EGFRwt, H1299-EGFRmt cell models
Protocol: (§7) Cells were seeded at a density of 2×10^6 cells in a 6 cm culture dish for protein sample preparation. […] After centrifugation, the cell lysate samples were boiled with 6X sample buffer for 10 minutes. The cell lysate protein samples were separated by SDS-PAGE and transferred to polyvinylidene difluoride (PVDF) membranes (Millipore). The membranes were then blocked with 5% skim milk (HIMEDIA) dissolved in Tris-buffered saline Tween (TBST) buffer for 1 hour, followed by three 10-minute washes with TBST. […] Subsequently, the membranes were incubated with the appropriate secondary antibodies for 1 hour at room temperature. Protein expressions were visualized using Western Lightning Plus ECL (PerkinElmer), detected by the iBright FL1000 imaging system, and analyzed using ImageJ software.

[4] = tested on: H1650 lung cancer cell model; assay: 3D-VM vasculature disruption, H1650 lung cancer cell model (real-time LSFM, lumen quantification); type: cell-based
Protocol: The assessment of in vitro vasculogenic mimicry (VM) capabilities of cancer cells was conducted utilizing the Matrigel tube formation assay. Chamber slides (TruLive3D Dishes, Burker) were prepared by applying a 100 μl layer of growth factor-reduced Matrigel (Corning) and subsequently allowing for gel solidification over a 30-minute period at 37° C. Following solidification, a cell suspension prepared in culture media at a concentration of 1.25×10^5 cells per 150 μl was evenly distributed over the gel surface. This preparation was then incubated for an additional 30 minutes at 37° C. within a CO2 incubator. After this initial incubation period, an overlay of 1× Matrigel mixed with culture medium was applied directly to the cells, so as to obtain a pre-cell model (10), and followed by further incubation at 37° C. for 5 to 24 hours so that a lung cancer cell model (100) was obtained for subsequent 3D-VM observation.
The quantification of tube or lumen formation of 3D-VM vasculature was conducted utilizing an analytical approach on at least eight distinct areas of interest (AOIs), among which three AOIs were specified as representative sections of images. The region of interest (ROI) indicates a delineated patent tube or hollow lumen within each tested cell. First, the AOI was identified and quantified. Following this, the mean ROI was calculated by aggregating the ROIs for all eight AOIs (area 1+ area 2+ . . . area 8) and dividing this sum by eight, thereby deriving an average area that reflects the typical dimensions of the regions analyzed in each individual lung cancer cell model. Finally, the standard average was ascertained by dividing the mean ROI by the mean total tube average. This ratio provides a standardized metric, enabling the effective comparison of anti-3D-VM vasculature efficiency across varying experimental setups or among different cell lines; the formula is as follows: […]
as §4

[5] = tested on: HCC827 lung cancer cell model; assay: 3D-VM vasculature disruption, HCC827 lung cancer cell model (real-time LSFM, lumen quantification); type: cell-based; conditions: HCC827, 500 nM, 24-hour incubation
Protocol: (§5) The assessment of in vitro vasculogenic mimicry (VM) capabilities of cancer cells was conducted utilizing the Matrigel tube formation assay. Chamber slides (TruLive3D Dishes, Burker) were prepared by applying a 100 μl layer of growth factor-reduced Matrigel (Corning) and subsequently allowing for gel solidification over a 30-minute period at 37° C. Following solidification, a cell suspension prepared in culture media at a concentration of 1.25×10^5 cells per 150 μl was evenly distributed over the gel surface. This preparation was then incubated for an additional 30 minutes at 37° C. within a CO2 incubator. […]
as §3, §4

H1650 cells = assay: Cell viability (MTT assay), H1650; type: cell-based; conditions: H1650 lung cancer cell model, various foslinanib concentrations
Protocol: as §1

[6] = Cell viability (MTT assay), HCC827; type: cell-based; conditions: human, HCC827 cells; HCC827, 62.5 nM
Protocol: as §1

H1299 cell model [7] = assay: Cell viability, H1299 cell model; type: cell-based; conditions: H1299, high concentration (beyond 250 nM)
Protocol: as §1

H1299-EGFRmt cell model [8] = assay: 2D-VM networks inhibition assay via high-content imaging, H1299-EGFRmt; type: cell-based; conditions: any concentration beyond 31.25 nM
Protocol: (§6) Cells to be tested were plated in 96-well plates (manufactured by Greiner) and allowed to adhere overnight under standard culture conditions. Following attachment, the cells to be tested were exposed to various concentrations of anti-VM compound foslinanib (ABEx BIO-Research Center). The treatment's efficacy, specifically its ability to inhibit VM vasculature, was monitored time-dependent. The assessment of 2D-VM network disruption was conducted using the ImageXpressR Micro Confocal High-Content Imaging System (Molecular Devices LLC). This advanced imaging technology facilitates high-resolution visualization of cell morphology and tubular networks. Analysis of the imaging data was performed using MetaXpress software, allowing for quantitative measurement of 2D-VM network inhibition. This methodological approach provides a robust framework for evaluating the potential of anti-VM compounds.

H1299-EGFRwt cell model [9] = assay: 2D-VM networks inhibition assay via high-content imaging, H1299-EGFRwt; type: cell-based; conditions: high concentration (beyond 31.25 nM)
Protocol: as §6

H1299 cell model [10] = assay: 2D-VM networks inhibition assay via high-content imaging, H1299; type: cell-based; conditions: H1299, compared with H1299-EGFRmt cell model
Protocol: as §6

H1299-EGFRwt cell model [11] = assay: 3D-VM vasculature disruption, H1299-EGFRwt cell model; type: cell-based; conditions: foslinanib 62.5 nM
Protocol: as §2, §3, §4

H1299-EGFRmt cell model [12] = assay: 3D-VM vasculature disruption, H1299-EGFRmt cell model; type: cell-based
Protocol: as §5, §3, §4

LAMC2 = assay: Western blot, LAMC2 in H1299, H1299-EGFRwt and H1299-EGFRmt cell models; type: cell-based; conditions: across the examined cell lines
Protocol: as §7

[13] = tested on: various tumor xenograft models; conditions: cited from earlier work

Question: Which results are given for C=CC(=O)Nc1cc(Nc2nccc(-c3cn(C)c4ccccc34)n2)c(OC)cc1N(C)CCN(C)C [osimertinib]?
Answer: cytotoxic effects (H1299-EGFRmt cell model [1]; H1299mt cell model, osimertinib): cytotoxic effects; 3D-VM vasculature (quantitative analysis) ([2]; after osimertinib treatment): significantly disrupted; formation of 3D-VM vasculature (3D imaging) ([2]; osimertinib): did not impact; cytotoxic effects (H1299-EGFRwt cell model [3]): cytotoxic effects; levels of phosphorylated EGFR (phosphorylated EGFR): markedly reduced

Question: Which results are given for COc1ccc2[nH]c(-c3cccc(F)c3)cc(=O)c2c1OP(=O)(O)O [foslinanib]?
Answer: disruption of VM lumens ([4]; H1650, 62.5 nM): disruption of VM lumens; inhibition of 3D-VM vasculature ([4]; H1650, 250 nM and 500 nM): significant inhibition; lumen area ([4]; H1650, 250 nM and 500 nM): significantly reduced; lumen area [5]: significant reduction; cell toxicity against H1650 cells (H1650 cells): no significant cell toxicity; viability at 0.0625 µM [6]: 70%; cell viability (H1299-EGFRmt cell model [1]; H1299-EGFRmt, 31.25 nM (range 7.8125 nM to 500 nM)): significant decrease; cell viability (H1299 cell model [7]): suppressed; 2D total network area (H1299-EGFRmt cell model [8]): decreasing trend; 2D total network length (H1299-EGFRmt cell model [8]): decreasing trend; inhibitory effect on the formation of a 2D-VM network (H1299-EGFRwt cell model [9]): rather insignificant; 2D total network area (H1299 cell model [10]): less effective inhibition; 2D total network length (H1299 cell model [10]): less effective inhibition; effect on 3D-VM vasculature (H1299-EGFRwt cell model [11]): disruptive effect; disruption of 3D-VM vasculature (quantitative analysis) (H1299-EGFRmt cell model [12]): significant; LAMC2 protein levels (LAMC2): significant decrease; anti-tumor efficacy [13]: robust anti-tumor efficacy
